Measurements: PMC3185571 (Viruses, 2010)
Where two headings read alike, the source gives them in different places.

Tests used:
[1] = molecular target: neuraminidase of B/Memphis/20/1996, B Seasonal, R152K (Influenza B virus, UniProt R4KWM8, R150K); format: biochemical
[2] = molecular target: neuraminidase of A/California/07/2009, H1N1 Pandemic, WT (Influenza A virus (A/California/07/2009(H1N1)), UniProt C7FH46); format: biochemical, 2009 pandemic H1N1 influenza virus
[3] = molecular target: neuraminidase of B/Memphis/20/1996, B Seasonal, WT (Influenza B virus, UniProt C7FPS7); format: biochemical
[4] = molecular target: neuraminidase of A/Washington/10/2008, A (H1N1) Seasonal, WT (Influenza A virus, UniProt G3LYQ1); format: biochemical
[5] = molecular target: neuraminidase of seasonal influenza A(H1N1) H275Y variant virus isolates (Influenza A virus, UniProt A8C8J7, H275Y); format: biochemical
[6] = molecular target: neuraminidase of A/Thailand/1035/2008 (H1N1), H275Y and D151D/G (Influenza A virus, UniProt C7FPR4); format: biochemical
[7] = molecular target: neuraminidase of A/Florida/21/2008, A (H1N1) Seasonal, H275Y (Influenza A virus, UniProt G3LYQ1, H275Y); format: biochemical
[8] = molecular target: neuraminidase of A/Texas/48/2009, H1N1 Pandemic, H275Y (Influenza A virus, UniProt C6KP13, H275Y); format: biochemical, 2009 pandemic H1N1 influenza virus
[9] = molecular target: neuraminidase of A/Texas/12/2007, A (H3N2) Seasonal, E119V (Influenza A virus, UniProt D1FVK3, I119V); assay: biochemical
[10] = molecular target: neuraminidase of 2009 pandemic H1N1 H275Y variant virus isolates (Influenza A virus, UniProt C3W5S3, H275Y); format: biochemical, 2009 pandemic H1N1 influenza virus
[11] = molecular target: neuraminidase of A/Washington/01/2007, A (H3N2) Seasonal, WT (Influenza A virus, UniProt A7UPN3); assay: biochemical
[12] = molecular target: neuraminidase of A/Ontario/RV0442/2009, A(H3N2), D151V and V50M (Influenza A virus, UniProt X2GPU4, D151V/V50M); format: biochemical
[13] = molecular target: neuraminidase of B/Texas/38/2008, D197E (Influenza B virus, UniProt C7F996); assay: biochemical

With CCC(CC)[C@H](NC(C)=O)[C@@H]1[C@H](O)[C@@H](C(=O)O)C[C@H]1N=C(N)N [Peramivir, peramivir] the “Fold Difference (IC50 of mutant/IC50 of wildtype virus)” value (“Fold Difference” below) [1] was 52.80±3.51 (176), the IC50 ([1]; read-out: Mean IC50 ± SD) was 52.8 nM and the “Fold Difference” value [2] was 0.06±0.02 (1). For the same molecule, the “Fold Difference” value [3] was 0.31±0.06 (1), the “Fold Difference” value [4] was 0.09±0.02 (1) and the “fold, mean IC50 among H275Y variants over H275 wildtype viruses” value [5] was roughly 300 fold. It also gave an IC50 ([5]; read-out: IC50 Mean (±SD)) of 30.6 ± 66.1 nM, an IC50 ([5]; read-out: IC50 Median) of 12.9 nM and an IC50 ([5]; read-out: IC50 Range) of 2.46 to 511 nM. The IC50 ([6]; read-out: IC50) was 295 nM, the “Fold Difference” value [7] was 11.27±1.36 (134) and the IC50 ([7]; read-out: Mean IC50 ± SD) was 11.3 nM. The “Fold Difference” value [8] was 10.06±0.01 (164), the IC50 ([8]; read-out: Mean IC50 ± SD) was 10.1 nM and the “Fold Difference” value [9] was 0.14±0.02 (1). It also gave an IC50 ([9]; read-out: Mean IC50 ± SD) of 0.14 nM, an IC50 ([10]; read-out: IC50 Mean (±SD)) of 10.4 ± 1.37 nM and an IC50 ([10]; read-out: IC50 Median) of 10.3 nM. The IC50 ([10]; read-out: IC50 Range) was 8.1 to 12.9 nM, the “Fold Difference” value [11] was 0.12±0.02 (1) and the IC50 [12] was 7.48 nM.

For CC(=O)N[C@H]1[C@H]([C@H](O)[C@H](O)CO)OC(C(=O)O)=C[C@@H]1N=C(N)N [Zanamivir, zanamivir], the IC50 [6] was 20.6 nM, the IC50 [9] was 0.51 nM and the IC50 [13] was 10.3 nM.
